For one compound, IC50 results are on record in publication PMC11455612 (Cell, 2024).

By IC50 is commonly meant the concentration needed to halve the response being measured. A lower IC50 goes with greater potency.

Test [1] concerns the target phosphatidylserine synthase 1 (PSS1) (Homo sapiens, UniProt P48651, P269S). Type of test: biochemical.
Test [2] deals with phosphatidylserine synthase 1 (PSS1) (Homo sapiens, UniProt P48651). Kind of test: cryo-EM structure at […] Å. Type of test: biochemical.

Turning to `CC(F)(F)CN1C(=O)c2[nH]nc(-c3cccc4[nH]c(=O)oc34)c2[C@@H]1c1ccc(Oc2cc(C(F)(F)F)cc(C(F)(F)F)c2)cc1` [DS, DS55980254], the half-inhibitory concentration (IC50) in test [1] is 1270 nM; in test [2] it was 1650 nM.
